The text below walks through data of patent publication US20250002487A1, “HETEROCYCLIC COMPOUNDS AND USES THEREOF” (Ventus Therapeutics U.S., Inc., priority 2021, published 2025).

Chain of human-cGAS (h-cGAS) (Q8N884 whole entry): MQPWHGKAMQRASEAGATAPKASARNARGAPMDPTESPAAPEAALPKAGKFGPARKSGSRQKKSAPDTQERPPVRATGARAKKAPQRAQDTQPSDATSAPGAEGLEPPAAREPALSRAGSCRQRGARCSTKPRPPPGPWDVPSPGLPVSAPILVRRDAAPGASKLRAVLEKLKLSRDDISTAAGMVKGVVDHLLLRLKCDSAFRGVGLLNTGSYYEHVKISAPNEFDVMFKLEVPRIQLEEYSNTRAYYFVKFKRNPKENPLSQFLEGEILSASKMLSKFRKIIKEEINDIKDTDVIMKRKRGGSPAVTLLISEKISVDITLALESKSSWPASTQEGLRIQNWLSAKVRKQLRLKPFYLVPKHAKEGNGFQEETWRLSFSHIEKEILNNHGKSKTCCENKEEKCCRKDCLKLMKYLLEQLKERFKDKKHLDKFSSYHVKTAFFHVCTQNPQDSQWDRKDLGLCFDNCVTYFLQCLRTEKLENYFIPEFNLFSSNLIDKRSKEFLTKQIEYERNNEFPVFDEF

This test addresses human-cGAS (h-cGAS) (Homo sapiens, UniProt Q8N884). The experiment in a line: hcGAS Kinase-Glo Assay. Type of test: biochemical. Particulars: 40 nM h-cGAS, 100 μM ATP, 100 μM GTP, 25 nM dsDNA, 3 h incubation, read-out: hcGAS potency IC50. A digest of the protocol: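 IC50 values come from a luminescence-based Kinase-Glo measurement on human cGAS. Conditions follow the Lama et al. 2019 method with minor modifications.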
On the technique in general: In Kinase-Glo more light means more ATP remaining.
A word on the IC50: it is the concentration that inhibits the measured activity by half. For `O=C(Nc1nnc(-c2ccccc2Cl)s1)c1ccno1` [Compound 6, N-(5-(2-chlorophenyl)-1,3,4-thiadiazol-2-yl)isoxazole-5-carboxamide], the IC50 lay within 100 to 500 nM.

Take `CSc1nnc(NC(=O)c2cncc(-c3ccccn3)c2)s1` [Compound 72, N-(5-(methylthio)-1,3,4-thiadiazol-2-yl)-[2,3′-bipyridine]-5′-carboxamide]: the IC50 is ≥ 1000 nM. The result for `O=C(Nc1nnc(-c2c[nH]cn2)s1)c1onc2ccccc12` [Compound 129, N-[5-(1H-imidazol-4-yl)-1,3,4-thiadiazol-2-yl]-2,1-benzoxazole-3-carboxamide] reads ≥ 1000 nM; that for `COc1ccc(-c2cc(C(=O)Nc3nnc(SC)s3)oc(=O)c2)cc1` [Compound 252, 4-(4-methoxyphenyl)-N-(5-methylsulfanyl-1,3,4-thiadiazol-2-yl)-6-oxo-pyran-2-carboxamide], 100 to 500 nM. With `O=C(Nc1nnc(-c2ccccc2Cl)s1)c1n[nH]c(=O)[nH]1` [Compound 63, N-(5-(2-chlorophenyl)-1,3,4-thiadiazol-2-yl)-5-oxo-4,5-dihydro-1H-1,2,4-triazole-3-carboxamide], the half-maximal inhibitory concentration (IC50) lay in the range of 500 to 1000 nM.

On to `CSc1nnc(NC(=O)c2noc(N3CCCC(C)(C)C3)n2)s1` [Compound 100, 5-(3,3-dimethylpiperidin-1-yl)-N-(5-(methylthio)-1,3,4-thiadiazol-2-yl)-1,2,4-oxadiazole-3-carboxamide], for which the half-maximal inhibitory concentration (IC50) is ≥ 1000 nM.

Take `O=C(Nc1nnc(-c2cscn2)s1)c1onc2ccccc12` [Compound 127, N-(5-(thiazol-4-yl)-1,3,4-thiadiazol-2-yl)benzo[c]isoxazole-3-carboxamide]: the half-inhibitory concentration (IC50) lay in the range of 500 to 1000 nM.

On to `CSc1nnc(NC(=O)c2nc(-c3ccccc3)no2)s1` [Compound 234, N-[5-(methylsulfanyl)-1,3,4-thiadiazol-2-yl]-3-phenyl-1,2,4-oxadiazole-5-carboxamide], for which the IC50 was 500 to 1000 nM.

On to `Cn1nccc1-c1nnc(NC(=O)c2onc3ccccc23)s1` [Compound 146, N-(5-(1-methyl-1H-pyrazol-5-yl)-1,3,4-thiadiazol-2-yl)benzo[c]isoxazole-3-carboxamide], for which the IC50 was ≥ 1000 nM. The result for `CC1(c2cc(C(=O)Nc3nnc(-c4ccccc4Cl)s3)on2)COC1` [Compound 41, N-(5-(2-chlorophenyl)-1,3,4-thiadiazol-2-yl)-3-(3-methyloxetan-3-yl)isoxazole-5-carboxamide] reads 100 to 500 nM; that for `CSc1nnc(NC(=O)c2cc(-c3cccc4ccncc34)cc(=O)o2)s1` [Compound 277, 4-(isoquinolin-8-yl)-N-(5-(methylthio)-1,3,4-thiadiazol-2-yl)-2-oxo-2H-pyran-6-carboxamide], 500 to 1000 nM; that for `CSc1nnc(NC(=O)c2cc(-c3cccc(C)c3)cc(=O)o2)s1` [Compound 249, N-(5-methylsulfanyl-1,3,4-thiadiazol-2-yl)-4-(m-tolyl)-6-oxo-pyran-2-carboxamide], 100 to 500 nM. The result for `O=C(Nc1nnc(-c2ccccc2Cl)s1)c1cc(CCO)no1` [Compound 179, N-(5-(2-chlorophenyl)-1,3,4-thiadiazol-2-yl)-3-(2-hydroxyethyl)isoxazole-5-carboxamide] reads 100 to 500 nM; that for `CSc1nnc(NC(=O)c2nnc(Nc3ccccc3)o2)s1` [Compound 257, 5-anilino-N-(5-methylsulfanyl-1,3,4-thiadiazol-2-yl)-1,3,4-oxadiazole-2-carboxamide], 500 to 1000 nM; that for `CSc1nnc(NC(=O)c2nnn(-c3cccnc3)n2)s1` [Compound 137, N-(5-(methylthio)-1,3,4-thiadiazol-2-yl)-2-(pyridin-3-yl)-2H-tetrazole-5-carboxamide], ≥ 1000 nM.

On to `CSc1nnc(NC(=O)c2cc(-c3cccc4ccccc34)cc(=O)o2)s1` [Compound 253, N-(5-methylsulfanyl-1,3,4-thiadiazol-2-yl)-4-(1-naphthyl)-6-oxo-pyran-2-carboxamide], for which the 50% inhibitory concentration (IC50) was 100 to 500 nM. Consider `CSc1nnc(NC(=O)c2cc(Cc3ccccc3)no2)s1` [Compound 233, 3-benzyl-N-[5-(methylsulfanyl)-1,3,4-thiadiazol-2-yl]-1,2-oxazole-5-carboxamide], for which the 50% inhibitory concentration (IC50) lay within 500 to 1000 nM. `CSc1nnc(NC(=O)c2onc3cc(C)ccc23)s1` [Compound 221, 6-methyl-N-[5-(methylsulfanyl)-1,3,4-thiadiazol-2-yl]-2,1-benzoxazole-3-carboxamide]: the IC50 fell in the range of 100 to 500 nM.

On to `CSc1nnc(NC(=O)c2cc(-c3cccc(C)c3)no2)s1` [Compound 219, 3-(3-methylphenyl)-N-[5-(methylsulfanyl)-1,3,4-thiadiazol-2-yl]-1,2-oxazole-5-carboxamide], for which the IC50 lay in the range of 500 to 1000 nM. Regarding `CC(C)c1cc(C(=O)Nc2nnc(-c3ccccc3Cl)s2)on1` [Compound 40, N-(5-(2-chlorophenyl)-1,3,4-thiadiazol-2-yl)-3-isopropylisoxazole-5-carboxamide], the 50% inhibitory concentration (IC50) was 100 to 500 nM. For the compound `CSc1nnc(NC(=O)c2cc(-c3cccc4c3cnn4C)cc(=O)o2)s1` [Compound 269, 4-(1-methyl-1H-indazol-4-yl)-N-(5-(methylthio)-1,3,4-thiadiazol-2-yl)-2-oxo-2H-pyran-6-carboxamide], the concentration for half-maximal inhibition (IC50) lay in the range of 100 to 500 nM. The result for `O=C(Nc1nnc(-c2ccccc2Cl)s1)c1onc2ccccc12` [Compound 22, N-(5-(2-chlorophenyl)-1,3,4-thiadiazol-2-yl)benzo[c]isoxazole-3-carboxamide] reads 100 to 500 nM; that for `CSc1nnc(NC(=O)c2cc(-c3cccc(C#N)c3)no2)s1` [Compound 214, 3-(3-cyanophenyl)-N-[5-(methylsulfanyl)-1,3,4-thiadiazol-2-yl]-1,2-oxazole-5-carboxamide], ≥ 1000 nM.

On to `CSc1nnc(NC(=O)c2cc(-c3nccc4ccccc34)no2)s1` [Compound 150, 3-(Isoquinolin-1-yl)-N-(5-(methylthio)-1,3,4-thiadiazol-2-yl)isoxazole-5-carboxamide], for which the 50% inhibitory concentration (IC50) was in the range of 500 to 1000 nM. The result for `O=C(Nc1nnc(-c2cn[nH]c2)s1)c1onc2ccccc12` [Compound 145, N-(5-(1H-pyrazol-4-yl)-1,3,4-thiadiazol-2-yl)benzo[c]isoxazole-3-carboxamide] reads ≥ 1000 nM; that for `CSc1nnc(NC(=O)c2nnn(Cc3ccccc3)n2)s1` [Compound 134, 2-benzyl-N-(5-(methylthio)-1,3,4-thiadiazol-2-yl)-2H-tetrazole-5-carboxamide], ≥ 1000 nM. The result for `CSc1nnc(NC(=O)c2cc(-c3ccccc3)c(C)c(=O)o2)s1` [Compound 203, 3-methyl-N-(5-(methylthio)-1,3,4-thiadiazol-2-yl)-2-oxo-4-phenyl-2H-pyran-6-carboxamide] reads 100 to 500 nM; that for `CSc1nnc(NC(=O)c2cc(=O)c3cccc(O)c3[nH]2)s1` [Compound 199, 8-hydroxy-N-(5-(methylthio)-1,3,4-thiadiazol-2-yl)-4-oxo-1,4-dihydroquinoline-2-carboxamide], ≥ 1000 nM; that for `CSc1nnc(NC(=O)c2cc(C3CC3)no2)s1` [Compound 17, 3-cyclopropyl-N-(5-(methylthio)-1,3,4-thiadiazol-2-yl)isoxazole-5-carboxamide], 500 to 1000 nM. The figure for `O=C(Nc1nncs1)c1onc2c1ccc1cccnc12` [Compound 13, N-(1,3,4-thiadiazol-2-yl)isoxazolo[4,3-h]quinoline-3-carboxamide] is 500 to 1000 nM; for `CSc1nnc(NC(=O)c2cc(-c3cccc(Cl)c3)cc(=O)o2)s1` [Compound 240, 4-(3-chlorophenyl)-N-(5-methylsulfanyl-1,3,4-thiadiazol-2-yl)-6-oxo-pyran-2-carboxamide] it is 100 to 500 nM; for `CSc1nnc(NC(=O)c2onc3c(C)cccc23)s1` [Compound 226, 7-methyl-N-[5-(methylsulfanyl)-1,3,4-thiadiazol-2-yl]-2,1-benzoxazole-3-carboxamide] it is ≥ 1000 nM.

For `CSc1nnc(NC(=O)c2onc3c2ccc2ccccc23)s1` [Compound 220, N-[5-(methylsulfanyl)-1,3,4-thiadiazol-2-yl]naphtho[1,2-c][1,2]oxazole-3-carboxamide], the IC50 was 100 to 500 nM. Take `CSc1nnc(NC(=O)c2nnc(N3CCCC3CO)o2)s1` (centres unmarked) [Compound 115, 5-[2-(hydroxymethyl)pyrrolidin-1-yl]-N-[5-(methylsulfanyl)-1,3,4-thiadiazol-2-yl]-1,3,4-oxadiazole-2-carboxamide]: the half-inhibitory concentration (IC50) lay in the range of 500 to 1000 nM.

On to `COc1cccc(-c2cc(C(=O)Nc3nnc(SC)s3)on2)c1` [Compound 212, 3-(3-methoxyphenyl)-N-[5-(methylsulfanyl)-1,3,4-thiadiazol-2-yl]-1,2-oxazole-5-carboxamide], for which the IC50 was ≥ 1000 nM.

`CSc1nnc(NC(=O)c2cc(-c3ccc4ccccc4n3)cc(=O)o2)s1` [Compound 254, N-(5-methylsulfanyl-1,3,4-thiadiazol-2-yl)-6-oxo-4-(2-quinolyl)pyran-2-carboxamide]: the half-inhibitory concentration (IC50) lay within 100 to 500 nM. Regarding `CSc1nnc(NC(=O)c2onc3ccc(Cl)cc23)s1` [Compound 229, 5-chloro-N-[5-(methylsulfanyl)-1,3,4-thiadiazol-2-yl]-2,1-benzoxazole-3-carboxamide], the concentration for half-maximal inhibition (IC50) was 500 to 1000 nM. The figure for `CSc1nnc(NC(=O)c2nnc(N3CCCC[C@@H]3c3ccccc3)o2)s1` (single isomer, unassigned) [Compound 121*] is 500 to 1000 nM; for `CSc1nnc(NC(=O)c2cc(-c3cccc(F)c3F)no2)s1` [Compound 151, 3-(2,3-Difluorophenyl)-N-(5-(methylthio)-1,3,4-thiadiazol-2-yl)isoxazole-5-carboxamide] it is 500 to 1000 nM; for `CSc1nnc(NC(=O)c2onc3ccc(F)cc23)s1` [Compound 223, 5-fluoro-N-[5-(methylsulfanyl)-1,3,4-thiadiazol-2-yl]-2,1-benzoxazole-3-carboxamide] it is 500 to 1000 nM.

`O=C(O)Cc1nnc(NC(=O)c2onc3ccccc23)s1` [Compound 132, [5-(2,1-benzoxazole-3-amido)-1,3,4-thiadiazol-2-yl]acetic acid]: the half-inhibitory concentration (IC50) is ≥ 1000 nM.
